In PubChem BioAssay AID248 (DTP/NCI, 2004):
Several values for one entry are separate records, joined by “and”; a condition that tells them apart may be missing. Equal entries are not always repeated. Inconclusive results and toxic doses are left out. No stated cut-off is given here; in the data, active means T/C of 150% or more; inactive means T/C below 125%.

System: L1210 leukemia ip in BDF1 mice, survival T/C
Assay: NCI In Vivo Anticancer Drug Screen. Data for tumor model L1210 Leukemia (intraperitoneal) in B6D2F1 (BDF1) mice
Conditions: endpoint: mean survival time, higher = longer survival
Method in brief: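 In this screen, tumor-bearing mice given compound are compared to those given vehicle, and their survival values are reported as a treated-to-control quotient.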

[1] = dose: 50.0 mg/kg/injection, schedule: Q01DX001 (ip), vehicle: carboxymethylcellulose (CMC)
[2] = dose: 100.0 mg/kg/injection, schedule: Q01DX001 (ip), vehicle: carboxymethylcellulose (CMC)
[3] = dose: 400.0 mg/kg/injection, schedule: Q01DX001 (ip), vehicle: carboxymethylcellulose (CMC)
[4] = dose: 100.0 mg/kg/injection, schedule: Q04DX002 (ip), vehicle: Klucel (hydroxypropylcellulose) (HPC)
[5] = dose: 200.0 mg/kg/injection, schedule: Q04DX002 (ip), vehicle: Klucel (hydroxypropylcellulose) (HPC)
[6] = dose: 75.0 mg/kg/injection, schedule: Q01DX001 (ip), vehicle: saline
[7] = dose: 150.0 mg/kg/injection, schedule: Q01DX001 (ip), vehicle: saline
[8] = dose: 300.0 mg/kg/injection, schedule: Q01DX001 (ip), vehicle: saline
[9] = dose: 100.0 mg/kg/injection, schedule: Q01DX001 (ip), vehicle: saline
[10] = dose: 200.0 mg/kg/injection, schedule: Q01DX001 (ip), vehicle: saline
[11] = dose: 400.0 mg/kg/injection, schedule: Q01DX001 (ip), vehicle: saline
[12] = dose: 100.0 mg/kg/injection, schedule: Q01DX009 (ip), vehicle: Klucel (hydroxypropylcellulose) (HPC)
[13] = dose: 200.0 mg/kg/injection, schedule: Q01DX009 (ip), vehicle: Klucel (hydroxypropylcellulose) (HPC)
[14] = dose: 400.0 mg/kg/injection, schedule: Q01DX009 (ip), vehicle: Klucel (hydroxypropylcellulose) (HPC)
[15] = dose: 100.0 mg/kg/injection, schedule: Q04DX003 (ip), vehicle: Klucel (hydroxypropylcellulose) (HPC)
[16] = dose: 200.0 mg/kg/injection, schedule: Q04DX003 (ip), vehicle: Klucel (hydroxypropylcellulose) (HPC)
[17] = dose: 400.0 mg/kg/injection, schedule: Q04DX003 (ip), vehicle: Klucel (hydroxypropylcellulose) (HPC)

Measured: T/C

N#CC1(Nc2ccc(-c3ccc(NC4(C#N)CCCC4)cc3)cc2)CCCC1
inactive: [1] 90 % of control | [2] 95 % of control | [3] 88 % of control

CC(C)(C)c1ccc(OCCO)cc1
inactive: dose: 25.0 mg/kg/injection, schedule: Q01DX009 (ip), vehicle: other 102 % of control | dose: 50.0 mg/kg/injection, schedule: Q01DX009 (ip), vehicle: other 96 % of control | dose: 100.0 mg/kg/injection, schedule: Q01DX009 (ip), vehicle: other 95 % of control

CCOC(=O)Nc1cc2c(c(=O)[nH]1)N=C(CN(C)c1ccc(C(=O)OC)cc1)CN2
inactive: dose: 100.0 mg/kg/injection, schedule: Q01DX001 (ip), vehicle: alkali diluted with saline 104 % of control | dose: 200.0 mg/kg/injection, schedule: Q01DX001 (ip), vehicle: alkali diluted with saline 96 % of control | dose: 400.0 mg/kg/injection, schedule: Q01DX001 (ip), vehicle: alkali diluted with saline 102 % of control

Cn1[nH]c(=O)c2ncccc2c1=O
inactive: [4] 97 % of control | dose: 100.0 mg/kg/injection, schedule: Q04DX002 (ip), vehicle: saline 94 % of control | [5] 97 % of control | dose: 200.0 mg/kg/injection, schedule: Q04DX002 (ip), vehicle: saline 94 % of control | dose: 400.0 mg/kg/injection, schedule: Q04DX002 (ip), vehicle: saline 97 % of control

CC(=O)OCC1OC(OC(C)C)[CH]([Hg][S]Cc2ccccc2)C(OC(C)=O)C1OC(C)=O (stereo not drawn)
inactive: dose: 0.5 mg/kg/injection, schedule: Q01DX015 (ip), vehicle: carboxymethylcellulose (CMC) 102 % of control | dose: 1.0 mg/kg/injection, schedule: Q01DX015 (ip), vehicle: carboxymethylcellulose (CMC) 98 % of control | dose: 2.0 mg/kg/injection, schedule: Q01DX015 (ip), vehicle: carboxymethylcellulose (CMC) 104 % of control | dose: 4.0 mg/kg/injection, schedule: Q01DX015 (ip), vehicle: carboxymethylcellulose (CMC) 96 % of control and 108 % of control | dose: 8.0 mg/kg/injection, schedule: Q01DX015 (ip), vehicle: carboxymethylcellulose (CMC) 88 % of control

O=C(/C=C/c1ccco1)c1ccc(F)cc1
inactive: [6] 94 % of control | [7] 98 % of control | [8] 102 % of control

COc1cccc(CNC(C)(C)CO)c1
inactive: [6] 95 % of control | [7] 102 % of control | [8] 104 % of control

O=S1(=O)CC(c2ccc(Br)cc2)Nc2ccccc21 (stereo not drawn)
inactive: [9] 98 % of control | dose: 100.0 mg/kg/injection, schedule: Q04DX003 (ip), vehicle: acetone 97 % of control | [10] 101 % of control | dose: 200.0 mg/kg/injection, schedule: Q04DX003 (ip), vehicle: acetone 100 % of control | [11] 98 % of control | dose: 400.0 mg/kg/injection, schedule: Q04DX003 (ip), vehicle: acetone 100 % of control

COc1ccc(Cl)cc1NC(=O)Nc1ccc(S(N)(=O)=O)cc1
inactive: [12] 102 % of control | [13] 93 % of control | [14] 94 % of control

C=CCCCCCCCCC(=O)N/N=C/c1ccccc1OC
inactive: [4] 110 % of control | [5] 104 % of control | dose: 400.0 mg/kg/injection, schedule: Q04DX002 (ip), vehicle: Klucel (hydroxypropylcellulose) (HPC) 110 % of control

Cc1cccc(OCc2ccccc2)n1
inactive: [1] 103 % of control | [2] 105 % of control | dose: 200.0 mg/kg/injection, schedule: Q01DX001 (ip), vehicle: carboxymethylcellulose (CMC) 100 % of control | [3] 100 % of control

O=[N+]([O-])c1ncn(C2OC(CO)C(O)C2O)c1Br (stereo not drawn)
inactive: dose: 50.0 mg/kg/injection, schedule: Q01DX001 (ip), vehicle: saline 98 % of control | [9] 102 % of control | [10] 102 % of control | [11] 104 % of control

CN(C)c1ccc(C(C[N+](=O)[O-])(c2ccc(N(C)C)cc2)c2ccc(N(C)C)cc2)cc1
inactive: [12] 93 % of control | [15] 103 % of control | [13] 100 % of control | [16] 93 % of control | [14] 97 % of control | [17] 90 % of control

NNC(=O)CNc1ccccc1
inactive: dose: 50.0 mg/kg/injection, schedule: Q01DX001 (ip), vehicle: Klucel (hydroxypropylcellulose) (HPC) 100 % of control | dose: 100.0 mg/kg/injection, schedule: Q01DX001 (ip), vehicle: Klucel (hydroxypropylcellulose) (HPC) 110 % of control | dose: 200.0 mg/kg/injection, schedule: Q01DX001 (ip), vehicle: Klucel (hydroxypropylcellulose) (HPC) 117 % of control

O=C(NN(c1ccccc1)c1cccc2ccccc12)c1ccccc1
inactive: dose: 50.0 mg/kg/injection, schedule: Q01DX009 (ip), vehicle: Klucel (hydroxypropylcellulose) (HPC) 103 % of control | [12] 103 % of control | [15] 89 % of control | [13] 97 % of control | [16] 93 % of control | [14] 100 % of control | [17] 94 % of control

CC(C(O)c1ccccc1)[n+]1ccccc1 (stereo not drawn)
inactive: [6] 102 % of control

Nc1ccccc1CCCC(=O)O
inactive: dose: 100.0 mg/kg/injection, schedule: Q01DX009 (ip), vehicle: saline 95 % of control | dose: 100.0 mg/kg/injection, schedule: Q04DX003 (ip), vehicle: saline 104 % of control | dose: 200.0 mg/kg/injection, schedule: Q01DX009 (ip), vehicle: saline 90 % of control | dose: 200.0 mg/kg/injection, schedule: Q04DX003 (ip), vehicle: saline 98 % of control | dose: 400.0 mg/kg/injection, schedule: Q01DX009 (ip), vehicle: saline 105 % of control | dose: 400.0 mg/kg/injection, schedule: Q04DX003 (ip), vehicle: saline 93 % of control
